We go through one molecule from patent US20220047589A1, “PDE9 INHIBITORS FOR TREATING THALASSEMIA” (Imara Inc., priority 2019, published 2022).

“Also recorded” adds a separate entry of the source.

Data set [1] relates to Hbb^th1 mice. Put plainly: In vivo study in Hbb^th1 thalassemia mice: blood Hb and RBC levels. On the set-up: species or system mouse. How it is done: (§1) This model was used to evaluate the effect of Compound 1 to treat thalassemia.
(§2) Hbb^th1 mice were given Compound 1 dissolved in 10:90 DMSO:corn oil once daily, by oral gavage, at either a high dose (60 mg/kg) or a low dose (30 mg/kg). A normal (C57BL/6) mouse was included as a control in the study to establish baselines along with a Hbb^th1 vehicle mouse not given Compound 1. Animals were observed once daily for morbidity and mortality. Mice were not allowed to recover from anesthesia and were killed by cervical dislocation while still anesthetized. Necropsy was limited to removal and weighing of the spleen for further analysis.
Blood was collected on day 30, from the retroorbital sinus of all mice, while mice were under isoflurane anesthesia, using heparin capillaries and EDTA-coated tubes. Parameters measured were: Hb levels and RBC levels.

The nature of data set [2]: Effect of food on adverse event profile on once-daily administration to patients. In kind it is in vivo. The conditions noted are these: once a day with food. How it is done: In some embodiments, Compound 1, or a pharmaceutically acceptable salt, solvate, or polymorph thereof is administered to a patient, wherein Compound 1, or a pharmaceutically acceptable salt, solvate, or polymorph thereof is administered once a day with food. […] The incidence and severity of the side effects, such as nausea, emesis and headache, can be reduced when Compound 1, or a pharmaceutically acceptable salt, solvate, or polymorph thereof is taken with food.

Data set [3] has as its system Hbb^th1 mice. Put plainly: Erythroblast differentiation (RBC maturation) in spleen cells of treated Hbb^th1 mice by flow cytometry. In kind it is in vivo, mouse. The following applies: 30 or 60 mg/kg once daily by oral gavage. As for the experimental part:
as §1, §2
RBC maturation is a key mechanistic component in reducing pathology of thalassemia. Therefore, immature RBC (Ery.B: late basophilic and polychromatic) percentage, mature RBC (Ery.C: ortochromatic and reticulocytes) percentage, and maturation index were also measured. […] Cells were further analyzed by flow cytometry (Gallios, Beckman) using FlowJo software v.10.1 (FlowJo, LLC). Results were expressed as the percentage of Ery.B (Live-Dead^neg, Ter-119^pos, CD71^pos, FSC^low) or Ery.C (Live-Dead^neg, Ter-119^pos, CD71^neg, FSC^low) populations. Maturation index was calculated as Ery.B/Ery.C ratio.
(In general: Flow cytometry measures light scatter and fluorescence of single cells or particles in a stream.)

`C[C@@H]1CN(Cc2ncccn2)C[C@H]1c1cn2c(C3CCOCC3)ncc2c(=O)[nH]1` [Compound 1, 6-[(3S,4S)-4-methyl-1-(pyrimidin-2-ylmethyl)pyrrolidin-3-yl]-3-tetrahydropyran-4-yl-7H-imidazo[1,5-a]pyrazin-8-one]: the “Hb levels (total Hb amount)” value in data set [1] (30 or 60 mg/kg once daily by oral gavage, blood on day 30, FIG. 1A) is “increase Hb levels; also recorded: increases the total Hb amount”. In addition, the “RBC levels (RBC amount)” value in data set [1] (30 or 60 mg/kg once daily by oral gavage, blood on day 30, FIG. 1B) is given as “increased RBC levels; also recorded: increases”. For the same molecule, in data set [1] (high dose (60 mg/kg), once daily by oral gavage, blood collected on day 30), the “increase of total Hb vs. control groups” value was 1.3 g/dL. Moreover, the “adverse event profile (nausea, emesis, headache) when taken with food” value in data set [2] was “food reduce the adverse event profile dramatically”. Besides, the “immature RBC (Ery.B) percentage” value in data set [3] (FIG. 2A) is on record as “reduces immature RBC cell percentages; also recorded: reduces immature RBC levels”. Besides, the “mature RBC (Ery.C) percentage” value in data set [3] (FIG. 2B) is given as “increases mature RBC cell percentages; also recorded: increases mature RBC levels”.
